# Data: a melting point compilation (Tetko et al.; mined from patent text by program, amines drawn as free bases though some values may be those of a salt)
row,SMILES,melting point [°C]
1,O=S(=O)(NCCCCC1Cc2ccccc2C1)c1ccc(Cl)cc1,77
2,O=C(NC(c1ccccc1)c1ccccc1)c1c[nH]cn1,201 to 202
3,COc1ccc(CCc2ccccc2C2(OC)C=CC(C(N)=O)=C(O)C2)cc1OC (stereo not drawn),146 to 148
4,COc1cc2c(cc1OC)C(CCCl)OCC2 (stereo not drawn),161 to 163
5,O=C(NCCCc1ccncc1)N(CCC12CC3CC(CC(C3)C1)C2)CC(F)(F)F,106 to 107
6,CCOc1cc2ncc(C#N)c(CC(=O)c3ccc(Br)cc3)c2cc1OCC,210 to 213
7,CCOC(=O)/C=C/c1cn(C)nc1OCc1ccc(OCc2nc(-c3ccco3)oc2C)c(OC)c1,135 to 136
8,CN(C(=O)N(C)c1ccc(CCl)cc1)c1ccc(CCl)cc1,72 to 73
9,O=C(OCC1OC(n2ccc(=O)[nH]c2=O)C(O)C1OC(=O)c1ccccc1)c1ccccc1 (stereo not drawn),111 to 114
10,N#Cc1ccc(CCc2ccc(CN3C(=O)c4ccccc4C3=O)cc2)cc1,194 to 197
11,N#Cc1ccc(C(=O)CC2(O)OCCO2)cc1,151 to 152
12,COCCOc1ccccc1-c1cc(Nc2cccc(S(C)(=O)=O)c2)ncn1,153 to 154
13,C=CC(O)(c1cccnc1)C(O)c1ccccc1Cl (stereo not drawn),110 to 112
14,CCOC(=O)/C=C/c1ccc(Br)nc1,79 to 80
15,O=C(O)Cc1ccc(Cc2nc3c(F)c(F)cc(F)c3s2)cc1,173 to 175
16,Cc1nc2c(cc1C(=O)NC(=N)N)CCCCC2CS(=O)(=O)O (stereo not drawn),245 to 247
17,O=C(c1ccc(F)cc1)N1CC2CC2(c2ccccc2)C1 (stereo not drawn),101 to 103
18,O=C(OCc1ccccc1)On1nnc2ccccc21,130 to 131
19,O=C(O)Cc1c(C(=O)O)c2cc(Oc3ccc(Cl)c(F)c3)ccc2n1-c1ccccc1,174 to 176
20,O=C(Nc1cccc2c1C(=O)N(CC(=O)N1CCN(c3ccncc3)CC1)C2=O)c1ccc(Cl)s1,207
21,CCCCCN(CCCCC)CCC(O)(P(=O)(O)O)P(=O)(O)O,47 to 49
22,COc1cccc(OCc2cccc(OCc3ccc4ccccc4n3)c2)c1C(=O)O,149 to 152
23,COc1ccc(C(=O)NC2CCCCC2)c2c1OCC2CC(=O)O (stereo not drawn),246 to 247
24,O=C(Nc1nc(/C=C/c2ccc([N+](=O)[O-])cc2)cs1)c1ccccc1,224 to 225
25,COc1ccc(C=CC(=O)Oc2cc3c(cc2OC)CC2c4cc(OC)c(OC)cc4CCN2C3)cc1OC (stereo not drawn),224 to 225

row,SMILES,melting point [°C]
1,COc1c(Br)c(-c2cc(C(C)C)n(C)n2)cc2oc(=O)c(C)c(C)c12,177 to 179
2,CN1CCC(OC(c2cccc(-c3ccn[nH]3)c2)c2nc3ccccc3s2)CC1 (stereo not drawn),90
3,CCOC(=O)c1cc2ccc3c(c2cc1OC)OC(n1cccc1)=C(C#N)C3c1cccc([N+](=O)[O-])c1 (stereo not drawn),190 to 191
4,CCCOC1=Nc2c(ncn2-c2ccccc2)C2=N[C@@H](Cc3ccccc3)CN12,74 to 80
5,C=CCn1c(C)nc2c1CC(C(=O)OCC)C1=C2NC2(CC1=O)Cc1ccccc1C2 (stereo not drawn),164 to 165
6,COc1ccc(COCc2nccn2CCO)cc1,96 to 98
7,COC(=O)c1scc2nc(SCc3cc(OC)ccn3)[nH]c12,156 to 160
8,O=C(Cc1ccccc1[N+](=O)[O-])c1ccccc1F,84 to 86
9,COC(=O)C(O)=Cc1ncc(Cc2ccc(F)cc2)cn1,132 to 134
10,N#Cc1ccc(CCc2ccc(OCc3ccc4ccccc4n3)cc2)cc1,156 to 158
11,O=C1CCCc2sc(CCN3CCC(c4csc5cc(F)ccc45)CC3)cc2N1,191 to 193
12,CC(C)(C)OC(=O)N1CCCC(c2ccc3c(c2)C2(CO3)C(=O)Nc3ccccc32)C1 (stereo not drawn),120 to 123
13,CCCCCCCCCCCCCCCCCC[PH](=O)C(OCC)OCC (stereo not drawn),54 to 58
14,Cc1nnc(-c2ccc(F)cc2)n2nc(OCc3ncnn3C)c(-c3ccsc3)c12,171 to 177
15,CN(C)C(=O)Nc1ccc(OCCc2ccccc2)c(N)c1,125 to 126
16,CCOC(=O)c1c(N2CCCC2)c2cccnc2n(C)c1=O,118 to 120
17,Cc1cccc2nnc(-c3ccccc3)cc12,101
18,O=C(O)c1cccc(OCCCc2cc(-c3ccc(C(F)(F)F)cc3)no2)c1,133 to 134
19,CCCCCCCCCCCCCCCCO[C@@H]1CCCO[C@H]1CO (relative stereo),41 to 42
20,O=[N+]([O-])c1cc(Cn2cncn2)ccc1Cl,98.9
21,COc1ccc(CCCN(CCCc2ccc(OC)c(OC)c2)C(=O)N(C)O)cc1OC,93 to 94
22,O=C(Nc1ccc2ccc(Oc3ccccc3)nc2n1)C1=CCC=CC1,95
23,CCOCc1nc2c(N)nc3ccccc3c2n1NC(C)C,162 to 164
24,N=C(NCC1(O)COc2ccccc2OC1)Nc1ccccc1,184 to 187
25,CC(=O)OCC1OC(c2ccc(Cl)c(Cc3ccc(-c4ccc(F)nc4)s3)c2)C(OC(C)=O)C(OC(C)=O)C1OC(C)=O (stereo not drawn),161 to 162

row,SMILES,melting point [°C]
1,O=S1(=O)NC(C2CCCCC2)Nc2ccc(S(=O)(=O)N3CCCCC3)cc21 (stereo not drawn),262 to 264
2,CN(C)Cc1ccc(Cn2ccc(OCc3ccc(F)cc3F)c(Br)c2=O)cc1,111 to 113
3,CC(C)NC(=NC(=Nc1ccccc1)N1CCOCC1)C(C)C,132 to 135
4,O=C(CNC1=Nc2cccc3cccc1c23)NCCCn1ccnc1,145 to 146
5,CCOC(=O)CSCc1nc(NCc2ccc(OC)c(Cl)c2)c2c3c(sc2n1)CCCC3,158 to 160
6,O=c1c(CCCCCc2cccnc2)cc2cccnc2n1-c1cccc([N+](=O)[O-])c1,155
7,O=C(O)/C=C/c1cnc(-c2ccc(O)c(C34CC5CC(CC(C5)C3)C4)c2)cn1,70 to 71
8,COc1cc(OC)nc(N2CCN(Cc3ccc(C(C)(C)NC(C)=O)cc3)CC2)n1,199 to 202
9,Nc1ccc(-n2cnn(-c3ccc(OC(F)(F)F)cc3)c2=O)cc1,115 to 120
10,COC(=O)C(C#N)=C(O)c1cc(F)c(F)c(F)c1F,71 to 73
11,COc1cc(C)c(C)c2c1CCC2=O,127 to 128
12,CCN(CC1OCCO1)c1c([N+](=O)[O-])cc(S(C)(=O)=O)cc1[N+](=O)[O-],125 to 127
13,Cc1nc(-c2ccc(Br)cc2)n(-c2ccc(S(N)(=O)=O)cn2)n1,221 to 222
14,Cc1oc(-c2ccccc2)nc1COc1cc(COc2ncccc2CC(=O)O)on1,129 to 130
15,O=C1CC(c2ccccc2)C(c2ccccc2)=NN1 (stereo not drawn),221 to 223
16,Cc1ccc(-c2cn(C)cc(-c3cccc(C(F)(F)F)c3)c2=O)cc1,154 to 156
17,CCOC(=O)c1c(C=O)c2c(Cl)cc(Cl)cc2n1S(=O)(=O)c1ccccc1,226
18,Oc1ccc2c(c1)CCCC(c1ccccc1)=C2c1ccc(OCCCCCSCCCC(F)(F)C(F)(F)F)cc1,167 to 168
19,Cc1ncn(-c2nc(Cl)c(-c3ccccc3)c3ccccc23)c1C,164 to 165
20,COc1ccc2c(c1)C(=O)C(Cc1cccc(N)c1)C(C)O2 (stereo not drawn),110 to 112
21,CCOC(=O)C(C#N)=Cc1c(Cl)n(Cc2ccc(Cl)cc2)c2ccccc12,179 to 180
22,Cc1c(O)cccc1NC(=O)CC12CC3CC(CC(C3)C1)C2,211
23,CCN(CC)c1ccc(C2(c3ccc(N(CC)CC)cc3N(CC)CC)OC(=O)c3ccccc32)c(Cl)c1 (stereo not drawn),141 to 143
24,CC(=O)OCC1OC(n2cc(C3=C(c4c[nH]c5ccccc45)C(=O)N(C)C3=O)c3cccnc32)C(OC(C)=O)C(OC(C)=O)C1OC(C)=O (stereo not drawn),119 to 121
25,COc1cc2oc(=O)cc(CN3CCC(OC)CC3)c2cc1OC,148 to 150

row,SMILES,melting point [°C]
1,O=Cc1ccc(-c2ccc(-c3ccsc3)s2)s1,155 to 157
2,CC(C)(C)OC(=O)NCC(CC(=O)O)c1ccc(Cl)cc1 (stereo not drawn),139 to 141
3,CC(=O)O[C@]1(C)CC[C@@H]2C[C@H]1OO[C@@]2(C)CS(=O)(=O)c1ccccc1,98 to 99
4,COCc1ccc(Cc2cccc(-c3c(O)c4ccc(Cl)cc4[nH]c3=O)c2)cc1,276 to 278
5,NC(=O)CCC(Nc1ccc2ccccc2n1)C(=O)O (stereo not drawn),222 to 226
6,CCCc1nn(-c2ccc(C(F)(F)F)cn2)cc1CCCOc1ccccc1CCC(=O)O,87 to 88
7,COCOc1c(NC(=S)NCc2cccnc2)cc(OC)cc1C(C)(C)C,137 to 138
8,CCCCc1nc(Sc2ccccc2)c(CO)[nH]1,45
9,CCNC(=O)c1sc(C=O)cc1[Si](C)(C)C,62 to 65
10,N#Cc1c(C(=O)O)cnn1-c1ccc(Cl)cc1,192 to 195
11,Brc1cncc(OCc2ccc3ccccc3c2)c1,108 to 109
12,COc1ccc(CNC(=O)[C@@H](NC(=O)[C@H](NCc2ccc(N(C)C)cc2)[C@H](O)[C@H](Cc2ccccc2)NC(=O)OC(C)(C)C)C(C)C)c(O)c1,89 to 91
13,Cc1c(-c2ccccc2)[nH]c(N)c1C(N)=O,195 to 197
14,CC(C)NC(=O)Nc1nc2nc(N)ncc2cc1-c1c(Cl)cccc1Cl,184 to 188
15,CCCn1c(COC)nc2c(N)nc3ccc(OCCCOC(=O)N4CCOCC4)cc3c21,173 to 174
16,COc1ccc(C(=O)c2c(-c3ccc(OC)cc3)sc3cc(OC)ccc23)cc1,119 to 120
17,O=C1c2cc([N+](=O)[O-])ccc2OCCC1Br (stereo not drawn),115 to 118
18,C=C(c1ccc(Cl)cc1)c1ccc(NC(=O)c2cc(I)cc(I)c2O)cc1Cl,171 to 175
19,O=C(NCc1ccccn1)OC1Cc2ccccc2N(S(=O)(=O)c2ccc(Cl)cc2)C1 (stereo not drawn),106 to 110
20,ClC1(c2ccccc2)c2ccccc2-c2ncncc21 (stereo not drawn),119 to 120
21,CON=Cc1nc(Nc2ccccc2)nc(C)c1C,85 to 88
22,COc1ccc(S(=O)(=O)NC(C)c2cc(F)ccc2-c2ccccc2F)cc1 (stereo not drawn),133 to 135
23,CCCCCCOc1ccc(-c2ccc(-c3ccc(CCCC)s3)c(F)c2)cc1,66
